For assay [1], the system named is 5HT2A receptor-expressing HEK293 cells. Put plainly: High-speed luminescence imaging of changes in calcium ion concentrations upon 5HT stimulation (Experiment 11). It counts as cell-based, human. Conditions: 5HT 10 μM; cpSfRE55-CaM in 5HT2A receptor-expressing HEK293 cells; images every 500 milliseconds; FIG. 15.
Experimental: The cells cultured in Procedure 1 were seeded onto 35 mm-diameter glass bottom dishes at a density of 2×10^5 cells/dish and cultured overnight in a 5% CO2 incubator. The human 5HT2A receptor expression plasmid pcDNA/5HT2AR and luminescent calcium indicator expression plasmid were transferred into the cells by electroporation using NEPA21 and the cells were cultured overnight in a 5% CO2 incubator.
2 mM luciferin (Promega) was added to the culture medium of the culture obtained in Procedure 2 and the culture was allowed to stand for 1 h. The culture dish was loaded onto a luminescence microscope (LV-200, Olympus) and time-lapse image capturing was performed to acquire luminescence images at an interval of 500 milliseconds. Luminescence observation conditions were as follows: magnification of objective lens:=40×, exposure time=200 milliseconds, and binning=2×2. Using an EM-CCD camera (iXon, Andor), luminescence images were taken and transferred to a personal computer. […]
Regions of interest (ROIs) were designated for each luminescence image captured in Procedure 3 and for each luminescence image captured in Procedure 4. […] The luminescence images were analyzed using MetaMorph software (Universal imaging). […]
Assay [2] has as its system HEK293 cells. Put plainly: Luminescence measurement of changes in intracellular calcium level in HEK293 cells upon ATP stimulation (Experiment 9). The class given is cell-based. The settings on record: ATP 200 μM, luciferin 2 mM, luminometer, FIG. 13. On the procedure: HEK293 cells (1×10^6 cells) were collected by centrifugation and luminescent calcium indicator expression vectors were transferred into the cells by electroporation using NEPA21. The transfected HEK293 cells were seeded into a 24-well multiplate at a concentration of 1×10^5 cells/well and cultured overnight in a 5% CO2 incubator.
After rinsing the cells with CO2-independent culture medium twice, 200 μL of CO2-independent culture medium containing D-luciferin (final conc.=2 mM) was added and the plate was allowed to stand for 15 min.
The plate was placed in a luminometer (Luminescencer-JNR II, ATTO), and luminescence intensity for pre- and post-ATP (200 μM) stimulation was measured over time.
Luminescent calcium indicators were transferred into HEK293 cells and the cells were cultured overnight. The cells were rinsed with CO2-independent culture medium, luciferin was added to the CO2-independent culture medium to a final luciferin concentration of 2 mM, and the culture was allowed to stand for 15 min, followed by measurement of luminescence intensity using a luminometer.
On the technique in general: Calcium flux is commonly read through the fluorescence of an indicator in the cells.

The test system of assay [3] is HEK293 cells. Put plainly: Luminescence-based calcium imaging in HEK293 cells upon ATP stimulation (Experiment 10). It counts as cell-based. Conditions: FIG. 14. On the procedure: HEK293 cells were acquired from ATCC and cultured in a 5% CO2 incubator in Earle's MEM culture medium (GIBCO) supplemented with 10% Fetal Bovine Serum and 1× Nonessential amino acids.
The cultured HEK293 cells were seeded onto 35 mm-diameter glass bottom dishes at a density of 2×10^5 cells/dish and cultured overnight in a 5% CO2 incubator. Luminescent calcium indicator expression plasmids were transferred into the HEK293 cells by electroporation using NEPA21 and cultured overnight in a 5% CO2 incubator.
2 mM luciferin (Wako Pure Chemical industries, Ltd.) was added to the culture medium and the culture was allowed to stand for 1 h. The culture dish was then loaded onto a luminescence microscope (LV-200, Olympus) and time-lapse image capturing was performed to acquire luminescence images at an interval of 10 sec. Luminescence observation conditions were as follows: magnification of objective lens=40×, exposure time=5 sec, and binning=1×1. An EM-CCD camera (iXon, Andor) was used as a CCD camera, and luminescence images were transferred to a personal computer configured as an image analyzer.
Changes in luminescence intensity of luminescent calcium indicators in response to changes in intracellular calcium ion concentration upon addition of ATP in culture medium were imaged. […] The luminescence images were transferred to the PC every 10 sec. […]

A further assay deals with E. coli (JM109 (DE3)). Put plainly: Luminescence activity of permutated and heterologous permutated firefly luciferase expressed in E. coli (Experiments 1 and 2). Conditions: Bright-Glo, 5 min room temperature, counts per 10 sec, FIG. 3. It counts as cell-based. The protocol:
The pRSET vector containing the permutated firefly luciferase gene was transformed into JM109(DE3) strain of E. coli and cultured overnight at 37° C. To 50 μL of culture was added 50 μL of Bright-Glo (Promega) and the culture was allowed to stand for 5 min at room temperature. Luminescence level for 10 sec was then measured using a luminometer (Luminescencer-JNR II, ATTO).
The prepared expression vector was transformed into E. coli (JM109 (DE3)) and cultured overnight in LB medium. To 50 μL of culture was added an equal volume of Bright-Glo and the culture was allowed to stand for 5 min at room temperature. Luminescence level of the reaction solution was reported as counts per 10 sec measured with the luminometer. As a control, permutated luciferase (GL4) derived from the North American firefly (Pholinus pyralis) luciferase was used. In FIG. 3, luminescence activities of GL4-derived and OKI-derived permutated luciferases are shown in terms of relative values with the activity of GL4 being 1. The vertical axis in FIG. 3 represents relative luminescence level.
The pRSET vector containing the heterologous permutated luciferase gene was transformed into JM109(DE3) strain of E. coli and cultured overnight at 37° C. in LB medium. […] Luminescence level for 10 sec was then measured using a luminometer (Luminescencer-JNR II, ATTO). […]

Regarding `NCCc1c[nH]c2ccc(O)cc12` [5HT, Serotonin], in assay [1], the “luminescence intensity response of indicator-expressing cells to 5HT stimulation” value is “cells that exhibited oscillation, as well as cells that exhibited a transient reduction in luminescence intensity”. As for `Nc1ncnc2c1ncn2[C@@H]1O[C@H](COP(=O)(O)OP(=O)(O)OP(=O)(O)O)[C@@H](O)[C@H]1O` [ATP, adenosine tri phosphate], the “change in luminescence intensity of luminescent calcium indicator upon ATP stimulation” value in the assay on HEK293 cells [2] is given as “reductions in luminescence intensity”. Also, the “time course of luminescence intensity change caused by ATP stimulation” value in the assay with HEK293 cells [3] was “transient”. The “luminescence intensity of indicator-expressing cells after ATP stimulation (single-cell imaging)” value in the assay with HEK293 cells [3] (luciferin 2 mM, exposure 5 sec) is “decreased levels of luminescence intensity”.

B1: OKI359: C-terminal fragment, residues 359 to 562 of OKI-derived luciferase; names the permutated luciferase made with OKI-N (protein)
chain: KPGACGKVAPFFSAKIVDLDTSKTLGVNQRGELCLKGPMIMKGYVNNPEATNALIDKDGWLHSGDLAYYDKDGHFFIVDRLKSLIKYQGYQVPPAELESILLQHPFIFDAGVAGIPDADAGELPAAVVVLEEGKTMTEQEVMDYVAGQVTASKRLRGGVKFVDEVPKGLTGKIDSRKIREMLTMGKKSKL
For the molecule B1, the “luminescence activity (relative luminescence level, GL4 being 1)” value with E. coli (JM109 (DE3)) was “high levels of luminescence activity”.

The values are drawn from US20170183637A1, “SPLIT RECOMBINANT LUCIFERASE, AND ANALYSIS METHOD USING THEREOF” (OLYMPUS CORPORATION, priority 2014, published 2017).
